Measured values taken from patent publication US12226426B2, “Combination therapy” (IMPERIAL COLLEGE INNOVATIONS LIMITED, priority 2018, dated 2025).

Experiments:
[1] = tested on: alkB mutants; conditions: MMS 20 mM, alkB mutants compared with WT, FIG. 1
[2] = tested on: WT E. coli; experiment: Alkylating-agent sensitivity assay (colony forming units); conditions: MMS 20 mM, 30 minutes at 37° C., FIG. 1

COS(C)(=O)=O [MMS, Methyl methanesulfonate]
Sensitivity to MMS (CFU) [1]: significantly increased
effect on bacterial growth (CFU) [2]: minimal effect on bacterial growth
